Laboratory results: patent US20240366770A1, “DEGRADATION OF BRUTON'S TYROSINE KINASE (BTK) BY CONJUGATION OF BTK INHIBITORS WITH E3 LIGASE LIGAND AND METHODS OF USE” (BeiGene Switzerland GmbH, priority 2021, published 2024)

Columns and labels:
HEK-293 cells = assay: HEK-293 cytotoxicity detection (CellTiter-Glo); type: cell-based; settings: Homo sapiens; HEK-293 cells, 72 h incubation, CellTiter-Glo luminescence, IC50 of cell proliferation inhibition; read-out: HEK293
Procedure, shortened: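 HEK-293 cells exposed 72 h to an 8-point, 4-fold dilution series (top 500× stock 5 mM in DMSO; 0.2% DMSO final). Viability by CellTiter-Glo luminescence after 10 min at room temperature; IC50 from four-parameter Hill fit of percent inhibition.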

BTK = target: T1, BTK (Homo sapiens, UniProt Q06187); assay: BTK degradation in TMD-8 cells (HTRF assay); type: cell-based; settings: 6 h treatment, IC50 (DC50) of BTK degradation
T1 construct: High control=Cell group with added DMSO and without compound, indicating microplate readings without BTK degradation; endogenous in cells; host or cells: TMD-8
Procedure, shortened: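 TMD-8 cells were exposed for 6 h to 8 compound doses (6-fold serial dilution, 0.2% DMSO). Lysed cells were incubated overnight at room temperature with HTRF antibodies and read at 665/620 nm. DC50 came from four-parameter fitting of % inhibition versus concentration.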

T1 sequence (Q06187 whole entry): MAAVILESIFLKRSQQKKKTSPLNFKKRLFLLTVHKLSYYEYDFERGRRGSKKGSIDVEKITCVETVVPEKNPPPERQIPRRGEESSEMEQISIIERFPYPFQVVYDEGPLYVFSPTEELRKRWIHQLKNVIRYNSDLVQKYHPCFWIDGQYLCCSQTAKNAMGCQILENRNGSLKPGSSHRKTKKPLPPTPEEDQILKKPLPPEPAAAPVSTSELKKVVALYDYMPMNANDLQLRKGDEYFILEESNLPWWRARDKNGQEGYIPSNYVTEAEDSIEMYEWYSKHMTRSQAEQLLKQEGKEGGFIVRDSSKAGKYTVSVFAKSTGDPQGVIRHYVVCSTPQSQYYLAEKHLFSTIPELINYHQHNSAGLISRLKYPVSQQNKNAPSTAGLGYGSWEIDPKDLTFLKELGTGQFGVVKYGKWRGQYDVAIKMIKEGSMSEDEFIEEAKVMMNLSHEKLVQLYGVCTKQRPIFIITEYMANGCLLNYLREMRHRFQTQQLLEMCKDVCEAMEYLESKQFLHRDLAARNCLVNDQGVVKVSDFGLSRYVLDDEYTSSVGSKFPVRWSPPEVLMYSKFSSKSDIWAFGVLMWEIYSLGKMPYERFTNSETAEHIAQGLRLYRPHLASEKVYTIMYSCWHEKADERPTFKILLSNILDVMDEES

DC50 (BTK) [nM] | Compound | IC50 (HEK-293 cells) [nM]
0.759 | Cc1cc(-c2ncnc3[nH]c4cc(N5CCN([C@H]6C[C@@H](c7ccc(NC8CCC(=O)NC8=O)cc7)C6)CC5)ccc4c23)ccc1[C@@H](C)NC(=O)c1nc(C2(C)CC2)no1 (stereo partly drawn) [Example 115, N-((1R)-1-(4-(7-(4-((1s,3s)-3-(4-((2,6-dioxopiperidin-3-yl)amino)phenyl)cyclobutyl)piperazin-1-yl)-9H-pyrimido[4,5-b]indol-4-yl)-2-methylphenyl)ethyl)-3-(1-methylcyclopropyl)-1,2,4-oxadiazole-5-carboxamide] | > 10000
0.509 | Cc1cc(-c2ncnc3[nH]c4cc(N5CCN([C@H]6C[C@H](c7ccc(NC8CCC(=O)NC8=O)cc7)C6)CC5)ccc4c23)ccc1[C@@H](C)NC(=O)c1nc(C2(C)CC2)no1 (stereo partly drawn) [Example 116, N-((1R)-1-(4-(7-(4-((1r,3r)-3-(4-((2,6-dioxopiperidin-3-yl)amino)phenyl)cyclobutyl)piperazin-1-yl)-9H-pyrimido[4,5-b]indol-4-yl)-2-methylphenyl)ethyl)-3-(1-methylcyclopropyl)-1,2,4-oxadiazole-5-carboxamide] | > 10000
0.981 | Cc1cc(-c2ncnc3[nH]c4cc(N5CCN([C@H]6C[C@H](c7ccc(N[C@@H]8CCC(=O)NC8=O)cc7)C6)CC5)ccc4c23)ccc1[C@@H](C)NC(=O)c1nc(C2(C)CC2)no1 [Example 117, N—((R)-1-(4-(7-(4-((1R,3r)-3-(4-(((R)-2,6-dioxopiperidin-3-yl)amino)phenyl)cyclobutyl)piperazin-1-yl)-9H-pyrimido[4,5-b]indol-4-yl)-2-methylphenyl)ethyl)-3-(1-methylcyclopropyl)-1,2,4-oxadiazole-5-carboxamide] | > 10000
1.73 | Cc1cc(-c2ncnc3[nH]c4cc(N5CCN([C@H]6C[C@@H](c7ccc(N[C@@H]8CCC(=O)NC8=O)cc7)C6)CC5)ccc4c23)ccc1[C@@H](C)NC(=O)c1nc(C2(C)CC2)no1 [Example 118, N—((R)-1-(4-(7-(4-((1S,3s)-3-(4-(((R)-2,6-dioxopiperidin-3-yl)amino)phenyl)cyclobutyl)piperazin-1-yl)-9H-pyrimido[4,5-b]indol-4-yl)-2-methylphenyl)ethyl)-3-(1-methylcyclopropyl)-1,2,4-oxadiazole-5-carboxamide] | > 10000
2.51 | Cc1cc(-c2ncnc3[nH]c4cc(N5CCN([C@H]6C[C@H](c7ccc(N[C@H]8CCC(=O)NC8=O)cc7)C6)CC5)ccc4c23)ccc1[C@@H](C)NC(=O)c1nc(C2(C)CC2)no1 [Example 119, N—((R)-1-(4-(7-(4-((1S,3r)-3-(4-(((S)-2,6-dioxopiperidin-3-yl)amino)phenyl)cyclobutyl)piperazin-1-yl)-9H-pyrimido[4,5-b]indol-4-yl)-2-methylphenyl)ethyl)-3-(1-methylcyclopropyl)-1,2,4-oxadiazole-5-carboxamide] | > 10000
1.25 | Cc1cc(-c2ncnc3[nH]c4cc(N5CCN([C@H]6C[C@@H](c7ccc(N[C@H]8CCC(=O)NC8=O)cc7)C6)CC5)ccc4c23)ccc1[C@@H](C)NC(=O)c1nc(C2(C)CC2)no1 [Example 120, N—((R)-1-(4-(7-(4-((1R,3s)-3-(4-(((S)-2,6-dioxopiperidin-3-yl)amino)phenyl)cyclobutyl)piperazin-1-yl)-9H-pyrimido[4,5-b]indol-4-yl)-2-methylphenyl)ethyl)-3-(1-methylcyclopropyl)-1,2,4-oxadiazole-5-carboxamide] | > 10000
1.58 | Cc1cc(-c2ncnc3[nH]c4cc(N5CCN(C6CN(C7CN(c8ccc9c(c8)C(=O)N(C8CCC(=O)NC8=O)C9=O)C7)C6)CC5)ccc4c23)ccc1[C@@H](C)NC(=O)c1nc(C2(C)CC2)no1 (stereo partly drawn) [Example 121, N-((1R)-1-(4-(7-(4-(1′-(2-(2,6-dioxopiperidin-3-yl)-1,3-dioxoisoindolin-5-yl)-[1,3′-biazetidin]-3-yl)piperazin-1-yl)-9H-pyrimido[4,5-b]indol-4-yl)-2-methylphenyl)ethyl)-3-(1-methylcyclopropyl)-1,2,4-oxadiazole-5-carboxamide] | > 10000
